What was measured:
Assay type in all cases: cell-based
[1] = target: T1, RORβ (Homo sapiens, UniProt Q92753); assay: Gal4-RORβ hybrid reporter gene assay in HEK293T cells; conditions: for IC50: Gal4 hybrid reporter gene assay, inverse agonism, mean±S.E.M., n≥4
T1 construct: uniprot ID Q92753-2, aa 216-470; expressed in transfected cells; host or cells: HEK293T
T1 sequence (Q92753 216-470): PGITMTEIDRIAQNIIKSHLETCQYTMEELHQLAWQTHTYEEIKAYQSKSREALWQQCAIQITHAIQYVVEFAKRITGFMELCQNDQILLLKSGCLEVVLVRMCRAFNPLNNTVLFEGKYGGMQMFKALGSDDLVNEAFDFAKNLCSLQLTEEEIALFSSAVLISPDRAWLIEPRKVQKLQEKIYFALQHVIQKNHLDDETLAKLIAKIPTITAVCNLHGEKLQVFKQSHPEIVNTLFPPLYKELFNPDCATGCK
Source text: (§1) In vitro characterization of compounds 1, 2, and 3 in Gal4‐ROR hybrid reporter gene assays confirmed inverse RORγ agonism with micromolar to sub‐micromolar IC50 values (Table 1).
(§2) In vitro Characterization Methods
(§3) Hybrid reporter gene assays. The hybrid receptor plasmids pFA-CMV-hRORα-LBD (NR1F1, isoform 1, uniprot ID P35398-2, aa 266-523), pFA-CMV-hRORβ-LBD (NR1F2, isoform 2, uniprot ID Q92753-2, aa 216-470), and pFA-CMV-hRORγ-LBD (NR1F3, isoform 1, uniprot ID P51449, aa 263-518) encode the Gal4-DBD fused to the hinge region and ligand binding domain of the canonical isoform of the respective human nuclear receptor and were cloned as described previously[13,14] using cDNA from SourceBioScience (Nottingham, UK). The Gal4-responsive firefly luciferase reporter pFR-Luc (Stratagene, La Jolla, CA, USA) and pRL-SV40 (Promega, Madison, WI, USA; internal control) were used together with either pFA-CMV-NR-LBD clone for the hybrid reporter gene assays.
(§4) HEK293T cells (German Collection of Microorganisms and Cell Culture GmbH, DSMZ) were cultured in Dulbecco’s modified Eagle’s medium (DMEM), high glucose supplemented with 10 % fetal calf serum (FCS), sodium pyruvate (1 mM), penicillin (100 U/mL), and streptomycin (100 μg/mL) at 37 °C and 5 % CO2 and seeded in 96-well plates (3×10^4 cells/well) twenty-four hours prior to transfection. Before transfection, medium was changed to Opti -MEM without supplements and transient transfection with above mentioned plasmids (pFR-Luc, pRL-SV40 and one pFA-CMV-NR-LBD clone) was carried out with Lipofectamine LTX reagent (Invitrogen) according to the manufacturer’s protocol. Five hours after transfection, medium was changed to Opti -MEM supplemented with penicillin (100 U/mL) a nd streptomycin (100 μg/mL) additionally containing 0.1 % DMSO and the respective test compound or 0.1 % DMSO alone as untreated control. Each concentration was tested in duplicates and each experiment was repeated independently at least two times. Followi ng overnight (14−16 h) incubation, cells were assayed for luciferase activity using the Dual - Glo Luciferase Assay System (Promega) according to the manufacturer’s protocol. Luminescence was measured with a Tecan Spark luminometer (Tecan Deutschland GmbH, G ermany). Normalization of transfection efficiency and cell growth was done by division of firefly luciferase data by Renilla luciferase data and multiplying the value by 1000 resulting in relative light units (RLU). Fold reporter repression was obtained by dividing the mean RLU of a test compound at a respective concentration by the mean RLU of the 0.1% DMSO control. […]

[2] = target: T2, RORγ (Homo sapiens, UniProt P51449); assay: Gal4-RORγ hybrid reporter gene assay in HEK293T cells; conditions: for IC50: Gal4 hybrid reporter gene assay, inverse agonism, mean±S.E.M., n≥4; for potency on RORγ compared to the related RORα and RORβ isoforms (subtype preference): Gal4 hybrid reporter gene assays
T2 construct: uniprot ID P51449, aa 263-518; expressed in transfected cells; host or cells: HEK293T
T2 sequence (P51449 263-518): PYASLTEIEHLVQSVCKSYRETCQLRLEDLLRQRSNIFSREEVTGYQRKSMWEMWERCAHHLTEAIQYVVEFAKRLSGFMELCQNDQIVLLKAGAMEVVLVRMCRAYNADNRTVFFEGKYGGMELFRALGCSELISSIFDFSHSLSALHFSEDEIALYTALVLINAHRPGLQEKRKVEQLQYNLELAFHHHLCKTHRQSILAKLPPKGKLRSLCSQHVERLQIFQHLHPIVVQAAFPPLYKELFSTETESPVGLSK
Source text: as §1, §2, §3
HEK293T cells (German Collection of Microorganisms and Cell Culture GmbH, DSMZ) were cultured in Dulbecco’s modified Eagle’s medium (DMEM), high glucose supplemented with 10 % fetal calf serum (FCS), sodium pyruvate (1 mM), penicillin (100 U/mL), and streptomycin (100 μg/mL) at 37 °C and 5 % CO2 and seeded in 96-well plates (3×10^4 cells/well) twenty-four hours prior to transfection. Before transfection, medium was changed to Opti -MEM without supplements and transient transfection with above mentioned plasmids (pFR-Luc, pRL-SV40 and one pFA-CMV-NR-LBD clone) was carried out with Lipofectamine LTX reagent (Invitrogen) according to the manufacturer’s protocol. Five hours after transfection, medium was changed to Opti -MEM supplemented with penicillin (100 U/mL) a nd streptomycin (100 μg/mL) additionally containing 0.1 % DMSO and the respective test compound or 0.1 % DMSO alone as untreated control. Each concentration was tested in duplicates and each experiment was repeated independently at least two times. Followi ng overnight (14−16 h) incubation, cells were assayed for luciferase activity using the Dual - Glo Luciferase Assay System (Promega) according to the manufacturer’s protocol. Luminescence was measured with a Tecan Spark luminometer (Tecan Deutschland GmbH, G ermany). Normalization of transfection efficiency and cell growth was done by division of firefly luciferase data by Renilla luciferase data and multiplying the value by 1000 resulting in relative light units (RLU). Fold reporter repression was obtained by dividing the mean RLU of a test compound at a respective concentration by the mean RLU of the 0.1% DMSO control. IC 50 values were obtained by plotting fold reporter activation vs test compound concentrations and fitting the resulting sigmoidal curve with a four-parameter logistic regression in SigmaPlot 12.5 (Systat Software GmbH, Erkrath, Germany). The Gal4 - ROR hybrid assays were validated with the reference inverse agonists SR1001 and SR1078 , which yielded IC50 values in agreement […]
(1 picture or pasted object on this page, not shown here)

[3] = target: T3, RORα (Homo sapiens, UniProt P35398); assay: Gal4-RORα hybrid reporter gene assay in HEK293T cells; conditions: for IC50: Gal4 hybrid reporter gene assay, inverse agonism, mean±S.E.M., n≥4
T3 construct: uniprot ID P35398-2, aa 266- 523; expressed in transfected cells; host or cells: HEK293T
T3 sequence (P35398 266-523): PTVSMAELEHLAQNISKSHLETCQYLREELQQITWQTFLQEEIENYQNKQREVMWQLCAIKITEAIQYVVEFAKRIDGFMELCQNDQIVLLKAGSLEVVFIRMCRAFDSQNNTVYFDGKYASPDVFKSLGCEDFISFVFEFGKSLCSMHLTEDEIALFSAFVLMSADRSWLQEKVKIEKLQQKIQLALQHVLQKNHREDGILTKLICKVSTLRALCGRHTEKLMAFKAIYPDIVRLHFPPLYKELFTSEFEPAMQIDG
Source text: as §1, §2, §3, §4

[4] = precise IC50 could not be determined due to cytotoxicity

Row | IC50 [1] [µM] | IC50 [2] [µM] | potency on RORγ compared to the related RORα and RORβ isoforms (subtype preference) [2] | IC50 [3] [µM] | Compound | activity on RORβ (in words) [1, 4] | activity on RORα (in words) [3, 4]
1 | 22 ± 1 | 0.37 ± 0.05 | more than tenfold higher potency | 23 ± 3 | O=S(=O)(Cc1ccccc1)N(Cc1ccc(N2CCC(C(F)(F)F)CC2)cc1F)C1CCC1 [Compound 2] |  | 
2 | > 10 | 4.6 ± 0.5 |  | > 10 | O=C1CC2(CCCC2)CC(=O)N1CCCCN1CCN(c2ccc(Cl)cc2)CC1 [Compound 1] | additionally active | additionally active
3 | 7.6 ± 0.5 | 0.68 ± 0.07 | more than tenfold higher potency | 10 ± 1 | O=S(=O)(Cc1ccccc1)N(Cc1ccc(N2CCC(C(F)(F)F)CC2)cc1)C1CCC1 [Compound 3] |  | 
